From publication PMC8251916 (Chemistry (Weinheim an Der Bergstrasse, Germany), 2021)

Columns and labels:
[1] = tested on: F21T-K+ (human telomeric G-quadruplex, mixed parallel/hybrid); assay: FRET melting assay, human telomeric G4 in potassium buffer; type: binding; conditions: 200 nM DNA, PIPER and 3 not reliable (spectral overlap)
Protocol: (§1) With the library in hand, we began our investigation into G4 stabilization by conducting a Förster resonance energy transfer (FRET) melting assay to assess DNA stabilization using the procedure outlined by De Cian et. al. ^[13] […] The sequences examined (at 200 nM) were the human telomeric G4 in potassium buffer (F21T‐K^+, mixed parallel/hybrid G4) ^[14] and sodium buffer (F21T‐Na^+, antiparallel G4), ^[15] the c‐Myc promoter G‐quadruplex (FmycT‐K^+, parallel G4), ^[16] a polymorphic G4 found in T. brucei (FEBR1T‐K^+, a mixed G4 topology), ^[6b] and a hairpin duplex DNA sequence (F10T‐K^+). Together, these sequences represent targets for therapeutic intervention to treat parasitic infections, ^[6b] or cancer. ^[1b] The topology of each sequence was confirmed independently via circular dichroism (CD, Figure S1). […]
(§2) FRET melting assays were performed to assess ligand affinity for duplex and G-quadruplex
(§3) DNA. Briefly, oligonucleotides of interest were obtained labelled at the 5’ and 3’ ends with FAM (a fluorescence donor) and TAMRA (a fluorescence quencher), respectively. In the folded state, proximity of the donor and quencher result in no observed fluorescence from FAM, since energy is transferred non-radiatively to TAMRA by FRET. As the temperature is raised and the secondary structure denatures, the fluorophores move further apart and the fluorescence signal increases. From the resulting curve, the characteristic melting temperature (Tmax, also referred to as Tm) is defined as the temperature which corresponds to the maxima of the first derivative of the normalised fluorescence signal. The change in melting temperature (ΔTm) induced by the presence of a small molecule ligand provides an indication of the ligand’s ability to stabilise the DNA structure. FRET experiments were performed according to the […]
(§4) procedure reported by De Cian and co-workers[S3] on a Stratagene MX3005P. The method consisted of holding at 25 °C for 5 min, before heating at 1 °C/min to 96 °C in 1 °C increments, […]

[2] = tested on: F21T-Na+ (human telomeric G-quadruplex, antiparallel); assay: FRET melting assay, human telomeric G4 in sodium buffer; type: binding; conditions: 200 nM DNA, PIPER and 3 not reliable (spectral overlap)
Protocol: as §1, §2, §3, §4

[3] = tested on: FmycT-K+ (c-Myc promoter G-quadruplex, parallel); assay: FRET melting assay, c-Myc promoter G4; type: binding; conditions: 200 nM DNA, PIPER and 3 not reliable (spectral overlap)
Protocol: as §1, §2, §3, §4

[4] = tested on: Febr1T-K+ (T. brucei G-quadruplex); assay: FRET melting assay, T. brucei G4; type: binding; conditions: 200 nM DNA, PIPER and 3 not reliable (spectral overlap)
Protocol: as §1, §2, §3, §4

[5] = tested on: F10T-K+ (hairpin duplex DNA); assay: FRET melting assay, hairpin duplex DNA; type: binding; conditions: 200 nM DNA, PIPER and 3 not reliable (spectral overlap)
Protocol: as §1, §2, §3, §4

MRC5 non-tumoral cells = assay: Cytotoxicity, alamarBlue assay, MRC5; type: cell-based, human; conditions: Homo sapiens, MRC5, 72 h, 72 h incubation, alamarBlue fluorescence; read-out: absolute EC50 MRC5
Protocol: (§5) Doxorubicin, suramin and miltefosine were used as control compounds.[ ^6b , ^9 ] After incubation with varied concentrations of the compounds for 72 h, cell viability was measured using either an alamarBlue™ assay (for MRC5, HeLa and T. brucei) or MTT assay (for L. major). Absolute EC50 values and selectivity indexes were then calculated from dose‐response curves (Table 2 and S14). […]
(§6) Cell culture reagents were purchased from Thermo Fisher Scientific (Waltham, MA, USA) and used as-is. The Dulbecco’s Minimal Essential Medium (DMEM) formulation contained either high glucose (4.5 g/L, catalogue number: 10569) or low glucose (1 g/L, catalogue number:
(§7) 10567). RPMI-1640 was provided without sodium pyruvate and with L-glutamine (catalogue number: 11875). Phosphate Buffered Saline (PBS) contained NaCl (9 g/L), KH2PO4 (144 mg/L) and Na2HPO4-7.H2O (795 mg/L, catalogue number: 10010049). TrypLE Express™ was provided with EDTA (458 mg/L) and without Phenol Red (catalogue number: 12604021).
(§8) MRC-5 cells (human lung fibroblasts) were grown in monolayer (37 °C, 5 % CO2 and 100 % humidity) in DMEM medium (1 g/L glucose), supplemented with 10% heat-inactivated Fetal Bovine Serum (hiFBS), 2 mM L-glutamine, 100 U / mL penicillin and […]
(§9) streptomycin. […]
(§10) Cells were cultured according to ATCC recommendations and were used for the experiments while in the exponential growth phase. […]
(§11) Cytotoxicity was measured through the alamarBlue® assay (Thermo Fisher Scientific).[S6,S13] Briefly, 5×10^3 MRC-5 or HeLa cells were seeded in 96-wells plates (100 µL / well) in the presence of increasing concentrations of compound. After 72 hrs of incubation at 37 °C, 20 µL of alamarBlue® solution (110 ng / ml) was added to each well and cells were reincubated for 4 hrs at 37 °C. Then, 50 µL of 3 % SDS were added to each well. The plate was incubated at 37 °C for an extra hour and then analysed by fluorescence with an Infinite F200 plate reader (TECAN Austria, GmbH). The excitation wavelength was fixed at 550 nm and the emission wavelength at 590 nm. The results are expressed as the concentration of compound that reduces

[6] = tested on: HeLa cervical carcinoma cells; assay: Cytotoxicity, alamarBlue assay, HeLa; type: cell-based, human; conditions: Homo sapiens, HeLa; 72 h incubation, alamarBlue fluorescence; read-out: absolute EC50 HeLa
Protocol: as §5, §6, §7
MRC-5 cells (human lung fibroblasts) were grown in monolayer (37 °C, 5 % CO2 and 100 % humidity) in DMEM medium (1 g/L glucose), supplemented with 10% heat-inactivated Fetal Bovine Serum (hiFBS), 2 mM L-glutamine, 100 U / mL penicillin and […] streptomycin. HeLa (Human cervical carcinoma cell line) cells were maintained at 37 °C and 5 % CO2 in high glucose DMEM (4.5 g / L) supplemented with 10% hiFBS, 100 U / ml penicillin, […] streptomycin, 2 mM L-glutamine and non-essential aminoacids (1X).
as §10, §11

T. brucei = assay: Trypanocidal activity, alamarBlue assay; type: cell-based; conditions: Trypanosoma brucei; 72 h incubation, alamarBlue fluorescence; read-out: absolute EC50 T. brucei
Protocol: as §5, §6, §7, §8, §9, §10
hiFBS. Parasites were split every other day and maintained in their experimental growth phase (below 2 million parasites per mL).
as §11

L. major = assay: Leishmaniacidal activity, MTT assay; type: cell-based; conditions: Leishmania major; 72 h incubation, MTT absorbance; read-out: absolute EC50 L. major
Protocol: Doxorubicin, suramin and miltefosine were used as control compounds.[ ^6b , ^9 ] After incubation with varied concentrations of the compounds for 72 h, cell viability was measured using either an alamarBlue™ assay (for MRC5, HeLa and T. brucei) or MTT assay (for L. major). Absolute EC50 values and selectivity indexes were then calculated from dose‐response curves (Table 2 and S14).
Invitrogen). L. major promastigotes (MHOM/IL/80/Friedlin) were cultured at 28 °C, 5 % CO2 in modified RPMI-1640 medium (Thermo Fisher Scientific, Waltham, MA, USA) with 10% hiFBS. Parasites were split every other day and maintained in their experimental growth phase (below 2 million parasites per mL). […]
The results are expressed as the concentration of compound that reduces cell growth by 50 % versus untreated control cells (EC50) using GraphPad Prism 7 (GraphPad Software) to fit the data to a sigmoidal curve. Data are presented as the average of three independent measurements all conducted in triplicate conditions. […]
The leishmaniacidal activity of the compounds on promastigotes L. major (MHOM/IL/80/Friedlin) was carried out as previously described.[S14] Briefly, 4 × 10^6 / mL promastigotes were incubated for 72 h at 28 °C in 96-well plates (50 µL/well) in the presence of increasing concentration of compounds. Cell proliferation was determined using an MTT-based assay (Sigma-Aldrich). Thus, after the 72 h incubation, 10 µL of MTT (5 mg/ml) were added to each well and parasites were reincubated for 4 hrs at 28 °C. Then, 50 µL of 20 % SDS were added to each well. The plate was then incubated at 37°C for 4-16 hrs and analysed using an Infinite F200 plate reader (TECAN Austria, GmbH). The absorbance was measured […]
at a wavelength of 540 nm and the EC50 was calculated as described above. Data are presented as the average of three independent measurements, all conducted in triplicate conditions. […]

[7] = 5 μM ligand, 10 mM KCl, 90 mM LiCl, 10 mM Li cacodylate

| Compound | ΔTm F21T-K+ ([1]; 10 µM ligand) [°C] | ΔTm F21T-Na+ ([2]; 10 µM ligand) [°C] | ΔTm FmycT-K+ ([3]; 10 µM ligand) [°C] | ΔTm Febr1T-K+ ([4]; 10 µM ligand) [°C] | ΔTm F10T-K+ ([5]; 10 µM ligand) [°C] | EC50 (MRC5 non-tumoral cells) [µM] | EC50 [6] [µM] | EC50 (T. brucei) [µM] | EC50 (L. major) [µM] | ΔTm F21T-K+ ([1]; 1 µM ligand) [°C] | ΔTm F21T-K+ [1, 7] [°C] | ΔTm F21T-Na+ ([2]; 5 μM ligand, 100 mM NaCl, 10 mM Li cacodylate) [°C] | ΔTm FmycT-K+ ([3]; 1 µM ligand) [°C] | ΔTm FmycT-K+ ([3]; 5 μM ligand, 1 mM KCl, 99 mM LiCl, 10 mM Li cacodylate) [°C] | ΔTm Febr1T-K+ ([4]; 1 µM ligand) [°C] | ΔTm Febr1T-K+ [4, 7] [°C] | ΔTm F10T-K+ ([5]; 1 µM ligand) [°C] | ΔTm F10T-K+ [5, 7] [°C] | ΔTm F21T-Na+ ([2]; 1 µM ligand) [°C] |
| --- | --- | --- | --- | --- | --- | --- | --- | --- | --- | --- | --- | --- | --- | --- | --- | --- | --- | --- | --- |
| CN1CCN(CCCN2C(=O)c3ccc(C(=O)c4ccc5c(c4)C(=O)N(CCCN4CCN(C)CC4)C5=O)cc3C2=O)CC1 [Compound 7] | -3 ± 1 | -3 ± 2 | -3 ± 1 | 1 ± 1 | 0 ± 1 | > 100 | > 100 | 70 ± 13 | > 100 |  |  |  |  |  |  |  |  |  |  |
| CCCCCCCCCCCCCCCCOP(=O)([O-])OCC[N+](C)(C)C [Miltefosine, reference compound] |  |  |  |  |  |  |  |  | 5.8 ± 0.01 |  |  |  |  |  |  |  |  |  |  |
| CN1CCN(CCCN2C(=O)c3ccc(Oc4ccc5c(c4)C(=O)N(CCCN4CCN(C)CC4)C5=O)cc3C2=O)CC1 [Compound 5] | -3 ± 1 | -3 ± 1 | -3 ± 1 | 1 ± 1 | 0 ± 1 | > 100 | > 100 | 67 ± 18 | > 100 |  |  |  |  |  |  |  |  |  |  |
| O=C1c2ccc3c4ccc5c6c(ccc(c7ccc(c2c37)C(=O)N1CCN1CCCCC1)c64)C(=O)N(CCN1CCCCC1)C5=O [PIPER, reference compound] | > 40 | 22 ± 1 | 26 ± 1 | 38 ± 7 |  |  |  |  |  | 33 ± 1 | 37±2 | 17±2 | 23 ± 1 | 21±2 | 21 ± 4 | 33±1 | 0 ± 1 | 1±1 |  |
| COc1cccc2c1C(=O)c1c(O)c3c(c(O)c1C2=O)C[C@@](O)(C(=O)CO)C[C@@H]3O[C@H]1C[C@H](N)[C@H](O)[C@H](C)O1 [Doxorubicin, reference compound] |  |  |  |  |  |  | 0.4 ± 0.05 |  |  | 10 ± 1 |  |  | 8 ± 1 |  | 5 ± 1 |  | 2 ± 1 |  | 0 ± 1 |
| CN1CCN(CCCn2c(=O)c3cc4c(=O)n(CCCN5CCN(C)CC5)c(=O)c4cc3c2=O)CC1 [Compound 8] | 1 ± 1 | 1 ± 1 | -2 ± 1 | -2 ± 1 | 0 ± 1 | > 100 | > 100 | 52 ± 7 | > 100 |  |  |  |  |  |  |  |  |  |  |
| CN1CCN(CCCNC(=O)c2ccc(C(=O)c3ccc(C(=O)NCCCN4CCN(C)CC4)c(C(=O)NCCCN4CCN(C)CC4)c3)cc2C(=O)NCCCN2CCN(C)CC2)CC1 [Compound 10] | -2 ± 1 | -2 ± 1 | -1 ± 1 | 1 ± 2 | 0 ± 1 | > 100 | > 100 | 55 ± 3 | > 100 |  |  |  |  |  |  |  |  |  |  |
| Cc1ccc(C(=O)Nc2ccc(S(=O)(=O)O)c3cc(S(=O)(=O)O)cc(S(=O)(=O)O)c23)cc1NC(=O)c1cccc(NC(=O)Nc2cccc(C(=O)Nc3cc(C(=O)Nc4ccc(S(=O)(=O)O)c5cc(S(=O)(=O)O)cc(S(=O)(=O)O)c45)ccc3C)c2)c1 [Suramin, reference compound] |  |  |  |  |  |  |  | 0.044 ± 0.006 |  |  |  |  |  |  |  |  |  |  |  |
| C[n+]1ccc(-c2c3nc(c(-c4cc[n+](C)cc4)c4ccc([nH]4)c(-c4cc[n+](C)cc4)c4ccc([nH]4)c(-c4cc[n+](C)cc4)c4nc2C=C4)C=C3)cc1 [TMPyP4, reference compound] |  |  |  |  |  |  |  |  |  | 33 ± 1 |  |  | 34 ± 1 |  | 32 ± 2 |  | 9 ± 1 |  | 31 ± 2 |
| CN1CCN(CCCN2C(=O)c3ccc(C(c4ccc5c(c4)C(=O)N(CCCN4CCN(C)CC4)C5=O)(C(F)(F)F)C(F)(F)F)cc3C2=O)CC1 [Compound 6] | -2 ± 1 | -8 ± 1 | -4 ± 1 | 2 ± 1 | 0 ± 1 | > 100 | > 100 | 36 ± 2 | > 100 |  |  |  |  |  |  |  |  |  |  |
